This note sets out measurements from PubChem BioAssay AID179 (DTP/NCI, 2004).

The source made the active and inactive calls.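 The calls were made as follows: active = compounds giving half or more protection of infected cells from virus-caused growth loss, again on retest; inactive = the rest.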

This assay concerns CEM cells HIV-1 protection, formazan growth assay. The experiment in a line: NCI AIDS Antiviral Assay. Conditions: for IC50: measured here: growth of uninfected CEM cells. The gist of the method: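 Soluble formazan readout of cell growth; CEM cells ± HIV-1; 5 drug concs. ≥50% protection → retest; ≥50% again = moderately active; reproducible 100% = confirmed active.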

The EC50 is the concentration at which the effect is half-maximal. What is called IC50 is the midpoint of a concentration-inhibition curve. Read a high IC50 as a need for much substance. `CCn1c(SCC(=O)NNC(=S)NC)nc2ccccc2c1=O`: the EC50 was more than 200 µM and the 50% inhibitory concentration (IC50) is more than 200 µM. Take `NC(=S)N/N=c1\cc(C(=O)Nc2ccc([N+](=O)[O-])cc2[N+](=O)[O-])oc2ccccc12`: the EC50 is more than 60.3 µM and the 50% inhibitory concentration (IC50) was more than 60.3 µM. On to `CCCCCCNCCc1cnc[nH]1`, for which the EC50 is more than 200 µM and the IC50 was more than 200 µM. As for `Nc1ccc(S(=O)(=O)NNc2nc(N3CCCCC3)nc(N3CCCCC3)n2)cc1`, the EC50 was more than 200 µM and the concentration for half-maximal inhibition (IC50) was more than 200 µM.

For `CCOC(=O)C(C(C)=O)C(CC(=O)OC)NC(=O)OCc1ccccc1` (stereo not drawn), the EC50 is more than 257 µM and the IC50 is more than 257 µM. Regarding `O=C(c1ccccc1)[C@H]1Nc2ccc(Cl)cc2[C@H]2OCCC[C@@H]12`, the EC50 is more than 11.5 µM and the half-maximal inhibitory concentration (IC50) was more than 11.5 µM. As for `CCN(CC)CCOc1ccc(N2C(=O)c3cccc4cc([N+](=O)[O-])cc(c34)C2=O)cc1`, the EC50 was more than 200 µM and the half-inhibitory concentration (IC50) was determined as 2.45 µM. As to `CCCCn1[nH]c(=O)ccc1=O`, the EC50 was more than 1480 µM and the half-inhibitory concentration (IC50) was 1410 µM.

Take `COc1ccc(/C=C\c2cc(OC)c(OC)c(OC)c2)cc1OCC(=O)O`: the result was inactive. As to `CC(=O)NC(CC(C)C(C)=O)(C(=O)O)C(=O)O` (stereo not drawn), the EC50 is more than 200 µM and the IC50 was more than 200 µM. Regarding `CCCCCCCC1(N=[N+]=[N-])C(=O)c2ccccc2N(C)C1=O` (stereo not drawn), the EC50 was 21.9 µM and the IC50 is 110 µM.

Take `COc1ccc(-c2sc(/N=C/c3ccc(N(C)CCC#N)cc3)c(C#N)c2C)cc1OC`: the half-maximal effective concentration (EC50) was more than 501 µM and the IC50 was 339 µM.

With `Cc1c(N)c(C#N)c2n(C)c3ncccc3n2c1=O`, the EC50 is more than 200 µM and the IC50 is more than 200 µM. In the case of `Cc1cccc(/C=N/NC(=S)N(C)CCc2ccccn2)n1`, the EC50 was more than 2 µM and the half-maximal inhibitory concentration (IC50) came to 0.0331 µM. In the same order, the values of `C=CCCCN1C(=O)C2C3c4ccccc4C(C=O)(c4ccccc43)C2C1=O` (stereo not drawn) are more than 200 µM and 7.24 µM.

As to `Cc1cccc(C)c1OC(F)(F)c1nc2ccccc2o1`, the EC50 was more than 200 µM and the IC50 is 30.2 µM.

Turning to `CCCCCCCCCCCCCCCCCCOC(CO)COP(=O)(O)OCC1OC(n2cc(C)c(=O)[nH]c2=O)CC1F` (stereo not drawn), the EC50 is 0.00155 µM and the IC50 was 2 µM. In the same order, the values of `Cc1nc(C(N)=S)sc1C(=O)C/C(=N/N)C(=O)Nc1cccc(Cl)c1C` are more than 166 µM and more than 166 µM. Take `C[S+](C)CCS(=O)(=O)[O-]`: the EC50 was more than 200 µM and the half-maximal inhibitory concentration (IC50) was more than 200 µM. `CCOC(=O)C1=C(C)NC(c2ccco2)=C(C#N)C1c1cccc([N+](=O)[O-])c1` (stereo not drawn): the EC50 is more than 0.2 µM and the IC50 was 0.0832 µM. The like results for `O=C(Nc1nc2ccccc2n1Cc1ccccc1)NC12CC3CC(CC(C3)C1)C2` were, in that order, more than 200 µM and more than 200 µM. In the same order, the values of `COc1ccc2c(c1)[n+]([O-])c(/C(C)=N/NC(N)=S)c(C)[n+]2[O-]` are more than 209 µM and 102 µM. The like results for `Cc1c(/C=N/NC(=O)c2cc(Br)cc(Br)c2O)c(=O)n(-c2ccccc2)n1C` were, in that order, more than 200 µM and 123 µM.

Take `Cn1c2ccc(Cl)cc2c2oc(-c3nn[nH]n3)cc(=O)c21`: the EC50 is more than 200 µM and the 50% inhibitory concentration (IC50) was 174 µM. The like results for `Cc1cc2c(C)nn(Cc3ccc(Cl)cc3)c2c(C#N)c1C` were, in that order, more than 43.7 µM and more than 43.7 µM. The like results for `COC(=O)c1cc(C)ccc1C1CN=NC12Cc1ccc(C)cc1C2=O` (stereo not drawn) were, in that order, 145 µM and 182 µM. In the same order, the values of `CCOC(=O)C1=C(OC(OCC)C(CC)[Se]c2ccccc2)CCCC1` (stereo not drawn) are more than 23.4 µM and more than 23.4 µM. On to `CCOC(C)CCCS(=O)(=O)O` (stereo not drawn), for which the EC50 is more than 200 µM and the half-inhibitory concentration (IC50) was more than 200 µM. Consider `Cc1cc(Cl)ccc1N=C1NC(=O)C(CC(=O)Nc2ccc([N+](=O)[O-])cc2[N+](=O)[O-])S1` (stereo not drawn), for which the EC50 is more than 77.6 µM and the IC50 was 67.6 µM.

With `CCOC(=O)N/N=C(/N)c1cccc([N+](=O)[O-])c1`, the EC50 was more than 200 µM and the 50% inhibitory concentration (IC50) is more than 200 µM. `O=C(O)CC(O)(CC(=O)O)C(=O)O`: the outcome was inactive. For `CC(=O)C(N=Nc1nc2ccc(Cl)cc2[nH]1)C(C)=O`, the EC50 was more than 200 µM and the half-inhibitory concentration (IC50) turned out to be 28.8 µM. In the same order, the values of `O=C1C[C@H](Sc2ccccc2)C2(OCCO2)[C@@H](Sc2ccccc2)C1` are more than 2 µM and 1.05 µM.

In the case of `Cn1cc(C(=O)C[n+]2ccccc2)c2ccccc21`, the EC50 was more than 224 µM and the IC50 was determined as 81.3 µM. The like results for `CC1=CC(=O)/C(=C/N2C(=O)CNC2=S)C(=O)O1` were, in that order, more than 200 µM and more than 200 µM. The like results for `C=C1CN(S(=O)(=O)c2ccc(C)cc2)CCCN(Cc2ccncc2)CCCN(S(=O)(=O)c2ccc(C)cc2)C1` were, in that order, more than 200 µM and 4.37 µM.

As for `C=C1CC(C#N)(C#N)[C@H]2C3CCCC3C[C@@H]12` (stereo partly drawn) (tested in a mixture with another compound), the EC50 is more than 200 µM and the IC50 came to 33.1 µM. The like results for `COc1cccc(C(NC2=NCCC=N2)c2cc3c(cc2O)OCO3)c1O` (stereo not drawn) were, in that order, more than 200 µM and 35.5 µM.

As to `O=C(O)C(SC1=NNC2(C(=O)N1)c1ccccc1-c1ccccc12)SC1=NNC2(C(=O)N1)c1ccccc1-c1ccccc12`, the result was inactive. For the compound `C#C[C@]1(O)CC[C@H]2[C@@H]3CCC4=C/C(=N/OCCN(C)C)CC[C@]4(C)[C@H]3CC[C@@]21C`, the EC50 is more than 100 µM and the half-maximal inhibitory concentration (IC50) was determined as 4.79 µM. `O=Cc1cn(C(=O)c2ccccc2)c2ccccc12`: the outcome was inactive. Take `CCN(CC)CCc1nc(-c2ccccc2)no1`: the EC50 was more than 200 µM and the IC50 amounted to 27.5 µM.

Consider `COc1ccc(/C(Br)=C2\OC(=O)c3ccccc32)cc1`, for which the EC50 was more than 200 µM and the concentration for half-maximal inhibition (IC50) is more than 200 µM. `C=CC(C)NC(=S)NNC(=S)NC` (stereo not drawn): the EC50 was more than 200 µM and the IC50 came out at 89.1 µM. In the same order, the values of `CN(C)CCCNC(=O)c1nc(NC(=O)c2nc(NC(=O)c3nc(NC(=O)c4ccc(C(=O)Nc5cn(C)c(C(=O)Nc6cn(C)c(C(=O)Nc7cn(C)c(C(=O)NCCCN(C)C)n7)n6)n5)cc4)cn3C)cn2C)cn1C` are more than 50.1 µM and more than 50.1 µM.

As to `C[C@@]12CCC[C@@H](OC(=O)c3ccc(Br)cc3)[C@@H](C1)C(=O)CC2`, the outcome was inactive. Turning to `CC(=O)OCCn1c(Cc2ccc(C)cc2)nn(C(C)=O)c1=O`, the EC50 was more than 200 µM and the IC50 is more than 200 µM.

Regarding `CCCCCCCCCCCC(=O)OCC1OC(OC)C(NC(=O)N(CCCl)N=O)C(O)C1O` (stereo not drawn), the EC50 was more than 26.3 µM and the half-maximal inhibitory concentration (IC50) amounted to 22.4 µM.

`CCN(CC)OC(=O)/C=C/c1ccccc1`: the result was inactive. Turning to `COc1ccc(OC)c(/C=C/c2ccccc2)c1`, the EC50 was 0.0631 µM and the IC50 was 110 µM. The like results for `O=C1NCCS(=O)(=O)N2CCC[C@@H]12` were, in that order, more than 1230 µM and more than 1230 µM. The like results for `CCCCCCCCCCCC(=O)OC[C@H](C[As](=O)(O)O)OC(=O)CCCCCCCCCCC` were, in that order, more than 200 µM and 4.17 µM. In the same order, the values of `O=C1CCCC(=O)C1=C(O)CCCCCCCCCCc1ccccc1` are more than 38 µM and more than 38 µM. As for `CC1(C)O[C@H]2OC3CCC(=O)CC3(O)[C@H]2O1` (stereo partly drawn), the result was inactive. In the case of `O=C(Cn1nc(Br)c(Br)c1Br)c1ccccc1`, the EC50 is more than 200 µM and the IC50 was found to be 19.5 µM. As for `O=C(O)CCSC(=O)Nc1ccccc1F`, the outcome was inactive. Same read-out and setting: the value for `O=[N+]([O-])c1ccc(C2=Nn3c(nnc3-c3ccc(Cl)cc3)SC2)o1` was “inactive”. As to `CC(O)(c1ccc(OCCC[N+](C)(C)C)cc1)C(C)(O)c1ccc(OCCC[N+](C)(C)C)cc1` (stereo not drawn), the EC50 is more than 1820 µM and the IC50 turned out to be 794 µM. In the same order, the values of `CCOC(=O)Cc1ccc(Nc2nc3cc(C(F)(F)F)ccc3nc2C(=O)OCC)cc1` are more than 100 µM and more than 100 µM. In the same order, the values of `CC(C)C1CCC(=O)CC1CCCCC1CC(=O)CC1O[Si](C)(C)C(C)(C)C` (stereo not drawn) are more than 200 µM and 7.24 µM. With `O=S(=O)(N=S(c1ccccc1)c1ccccc1)c1ccccc1`, the EC50 was more than 145 µM and the IC50 is more than 145 µM.

Take `COC(=O)C1=C(C(=O)OC)NC2=C(C=N1)CCC2`: the EC50 is more than 380 µM and the half-maximal inhibitory concentration (IC50) was more than 380 µM. Consider `COc1ccc(CCNc2ccc(NCCc3ccc(OC)c(OC)c3)c3c2C(=O)c2ccccc2C3=O)cc1OC`, for which the result was inactive. On to `Cc1c2c(n(CCc3ccc(Cl)cc3)c1C)NC(c1ccccc1)C(C#N)S2(=O)=O` (stereo not drawn), for which the EC50 is more than 200 µM and the IC50 was 8.91 µM. The like results for `Cc1nc2cc[nH]n2c(=O)c1CCc1ccccc1` were, in that order, more than 200 µM and 151 µM. In the same order, the values of `Cc1cc(Cc2cc(C)c(NC(=O)C(=O)C3CCC4=C(SC5C=CC=CC5N4)C3=O)c(C(C)C)c2)cc(C(C)C)c1NC(=O)C(=O)C1CCC2=C(SC3C=CC=CC3N2)C1=O` (stereo not drawn) are more than 41.7 µM and 12 µM. In the case of `CNc1ncnc2nc(C)c(C)nc12`, the EC50 was more than 200 µM and the half-inhibitory concentration (IC50) is more than 200 µM.

Take `CCNc1nnc(-c2ccccc2Nc2ccccc2-c2nnc(NCC)s2)s1`: the EC50 is more than 200 µM and the half-maximal inhibitory concentration (IC50) worked out at 16.2 µM.

Take `O=c1ncc2ccc([N+](=O)[O-])cc2[nH]1`: the EC50 was more than 186 µM and the IC50 was found to be 148 µM. Take `CC1(C)CC(=O)C2(CC(CSc3ccccc3)C(CS(=O)(=O)c3ccccc3)C2)C(=O)C1` (stereo not drawn): the EC50 is more than 200 µM and the IC50 is more than 200 µM. For `[O-]c1c2c(nn1-c1ccc(F)cc1)c1ccccc1c[n+]2Cc1ccccc1`, the result was inactive. With `COC(=O)c1ccccc1C1CN=NC12Cc1ccccc1C2=O` (stereo not drawn), the EC50 is more than 200 µM and the half-maximal inhibitory concentration (IC50) was 120 µM.
